Several values for one entry are separate records, joined by “and”; a condition that tells them apart may be missing. Equal values may be shown once. Read-outs that look alike come from different tables or passages of the source.
Key:
[1] = tested on: PAMPA; conditions: UV detection
[2] = tested on: PAMPA
[3] = tested on: PAMPA; remark: listed apart in the source
[4] = tested on: PAMPA; remark: listed apart in the source
[5] = PAMPA, permeability assay across an artificial membrane; conditions: for Acceptor Concentration, Ave: after incubation
[6] = tested on: PAMPA; remark: listed apart in the source
[7] = tested on: PAMPA; conditions: calculated using Supplement Equation 1, UV detection

## CCCCC[C@@H]1OC(=O)[C@@H](C)N(C)C(=O)[C@H](CCCCC)OC(=O)[C@@H](C)N(C)C(=O)[C@H](CCCCC)OC(=O)[C@@H](C)N(C)C(=O)[C@H](CCCCC)OC(=O)[C@@H](C)N(C)C(=O)[C@H](CCCCC)OC(=O)[C@@H](C)N(C)C(=O)[C@H](CCCCC)OC(=O)[C@@H](C)N(C)C1=O [Compound C1.6]
[1]; Well 1 / %R, Well 1
  % recovery: 89% and 86%
[1]; Well 2 / %R, Well 2
  % recovery: 88% and 97%
[1]; Well 3 / %R, Well 3
  % recovery: 80% and 98%
[1]; Well 4 / %R, Well 4
  % recovery: 82% and 97%
[1]; Well 5 / %R, Well 5
  % recovery: 89% and 91%
[2]; Well 1 / [acc]
  acceptor concentration after incubation: 38.6 µM and 51.1 µM
[2]; Well 2 / [acc]
  acceptor concentration after incubation: 37.6 µM and 41.4 µM
[2]; Well 3 / [acc]
  acceptor concentration after incubation: 41.9 µM
[2]; Well 4 / [acc]
  acceptor concentration after incubation: 31.6 µM and 49.1 µM
[2]; Well 5 / [acc]
  acceptor concentration after incubation: 37.4 µM
[3]; Well 1 / [donor]
  donor concentration after incubation: 407 µM and 377 µM
[3]; Well 2 / [donor]
  donor concentration after incubation: 404 µM and 445 µM
[3]; Well 3 / [donor]
  donor concentration after incubation: 368 µM and 446 µM
[3]; Well 4 / [donor]
  donor concentration after incubation: 379 µM and 438 µM
[3]; Well 5 / [donor]
  donor concentration after incubation: 406 µM and 417 µM
[4]; Acceptor Concentration (uM) – ELSD Detection / [row 1]
  Acceptor Concentration: 27.2 µM
[4]; Acceptor Concentration (uM) – ELSD Detection / [row 2]
  Acceptor Concentration: 30 µM
[4]; Acceptor Concentration (uM) – ELSD Detection / [row 3]
  Acceptor Concentration: 25.6 µM
[4]; Acceptor Concentration (uM) – ELSD Detection / [row 4]
  Acceptor Concentration: 29.3 µM
[4]; Acceptor Concentration (uM) – ELSD Detection / [row 5]
  Acceptor Concentration: 27.1 µM
[4]; Acceptor Concentration (uM) – ELSD Detection / [row 6]
  Acceptor Concentration: 45.6 µM
[4]; Acceptor Concentration (uM) – ELSD Detection / [row 7]
  Acceptor Concentration: 39.3 µM
[4]; Acceptor Concentration (uM) – ELSD Detection / [row 8]
  Acceptor Concentration: 42.2 µM
[4]; Acceptor Concentration (uM) – ELSD Detection / [row 9]
  Acceptor Concentration: 25.8 µM
[4]; Acceptor Concentration (uM) – ELSD Detection / [row 10]
  Acceptor Concentration: 46.7 µM
[4]; Acceptor Concentration (uM) – UV Detection / [row 1]
  Acceptor Concentration: 38.6 µM
[4]; Acceptor Concentration (uM) – UV Detection / [row 2]
  Acceptor Concentration: 37.6 µM
[4]; Acceptor Concentration (uM) – UV Detection / [row 3]
  Acceptor Concentration: 33.9 µM
[4]; Acceptor Concentration (uM) – UV Detection / [row 4]
  Acceptor Concentration: 31.6 µM
[4]; Acceptor Concentration (uM) – UV Detection / [row 5]
  Acceptor Concentration: 37 µM
[4]; Acceptor Concentration (uM) – UV Detection / [row 6]
  Acceptor Concentration: 51.1 µM
[4]; Acceptor Concentration (uM) – UV Detection / [row 7]
  Acceptor Concentration: 41.4 µM
[4]; Acceptor Concentration (uM) – UV Detection / [row 8]
  Acceptor Concentration: 41.9 µM
[4]; Acceptor Concentration (uM) – UV Detection / [row 9]
  Acceptor Concentration: 49 µM
[4]; Acceptor Concentration (uM) – UV Detection / [row 10]
  Acceptor Concentration: 37.4 µM
[5]; PAMPA percent diffusion, C0 500 uM
  Diffusion (%): 6.78% and 7% and 6.8 ± 1.7%
[5]; PAMPA, (acceptor + donor)/total analyte, C0 500 uM
  Recovery (%): 90%
[5]; PAMPA, Ave, ELSD detection, C0 500 uM
  Papp at 500 uM: 1.9 ×10⁻⁶ cm/s
[5]; PAMPA, ratio-based method, mean ± SD, C0 500 uM, UV detection
  Papp at 500 uM: 2 ± 0.23 ×10⁻⁶ cm/s
[5]; PAMPA, Recovery (%), PAMPA, (acceptor + donor)/total analyte, C0 500 uM
  recovery at 500 uM: 89.7%
[5]; PAMPA, ELSD detection, C0 500 uM
  Acceptor Concentration, Ave: 33.9 µM
[5]; PAMPA, UV detection, C0 500 uM
  Acceptor Concentration, Ave: 39.95 µM
[5]; increase: difference between percent diffusion of macrocycle vs linear counterpart
  Δ % diffusion: ↑2%
[6]; Papp (x 10^-6 cm/s) – ELSD Detection / [row 2], ELSD Detection
  Papp: 1.94 ×10⁻⁶ cm/s
[6]; Papp (x 10^-6 cm/s) – ELSD Detection / [row 3], ELSD Detection
  Papp: 1.99 ×10⁻⁶ cm/s
[6]; Papp (x 10^-6 cm/s) – ELSD Detection / [row 4], ELSD Detection
  Papp: 1.87 ×10⁻⁶ cm/s
[6]; Papp (x 10^-6 cm/s) – ELSD Detection / [row 5], ELSD Detection
  Papp: 1.89 ×10⁻⁶ cm/s
[6]; Papp (x 10^-6 cm/s) – ELSD Detection / [row 6], ELSD Detection
  Papp: 1.93 ×10⁻⁶ cm/s
[6]; Papp (x 10^-6 cm/s) – ELSD Detection / [row 7], ELSD Detection
  Papp: 1.88 ×10⁻⁶ cm/s
[6]; Papp (x 10^-6 cm/s) – ELSD Detection / [row 8], ELSD Detection
  Papp: 1.91 ×10⁻⁶ cm/s
[6]; Papp (x 10^-6 cm/s) – ELSD Detection / [row 9], ELSD Detection
  Papp: 1.8 ×10⁻⁶ cm/s
[6]; Papp (x 10^-6 cm/s) – ELSD Detection / [row 10], ELSD Detection
  Papp: 1.92 ×10⁻⁶ cm/s
[6]; Papp (x 10^-6 cm/s) – UV Detection / [row 1], UV Detection
  Papp: 1.95 ×10⁻⁶ cm/s
[6]; Papp (x 10^-6 cm/s) – UV Detection / [row 2], UV Detection
  Papp: 1.93 ×10⁻⁶ cm/s
[6]; Papp (x 10^-6 cm/s) – UV Detection / [row 3], UV Detection
  Papp: 1.95 ×10⁻⁶ cm/s
[6]; Papp (x 10^-6 cm/s) – UV Detection / [row 4], UV Detection
  Papp: 1.81 ×10⁻⁶ cm/s
[6]; Papp (x 10^-6 cm/s) – UV Detection / [row 6], UV Detection
  Papp: 2.59 ×10⁻⁶ cm/s
[6]; Papp (x 10^-6 cm/s) – UV Detection / [row 7], UV Detection
  Papp: 1.89 ×10⁻⁶ cm/s
[6]; Papp (x 10^-6 cm/s) – UV Detection / [row 8], UV Detection
  Papp: 1.91 ×10⁻⁶ cm/s
[6]; Papp (x 10^-6 cm/s) – UV Detection / [row 9], UV Detection
  Papp: 2.19 ×10⁻⁶ cm/s
[6]; Papp (x 10^-6 cm/s) – UV Detection / [row 10], UV Detection
  Papp: 1.87 ×10⁻⁶ cm/s
[7]; Well 1 / %T, Well 1
  %T: 0.63% and 0.58%
[7]; Well 2 / %T, Well 2
  %T: 0.65% and 0.63%
[7]; Well 3 / %T, Well 3
  %T: 0.63% and 0.59%
[7]; Well 4 / %T, Well 4
  %T: 0.66% and 0.6%
[7]; Well 5 / %T, Well 5
  %T: 0.62% and 0.63%
